Source: patent publication US20210317092A1 (BAYER PHARMA AKTIENGESELLSCHAFT, priority 2016, published 2021)
Where two headings read alike, the source gives them in different places.

Target: T1, human Bradykinin B1 receptor (Homo sapiens, UniProt P46663)
T1 construct: host or cells: CHO-K1
T1 sequence (P46663 1-353): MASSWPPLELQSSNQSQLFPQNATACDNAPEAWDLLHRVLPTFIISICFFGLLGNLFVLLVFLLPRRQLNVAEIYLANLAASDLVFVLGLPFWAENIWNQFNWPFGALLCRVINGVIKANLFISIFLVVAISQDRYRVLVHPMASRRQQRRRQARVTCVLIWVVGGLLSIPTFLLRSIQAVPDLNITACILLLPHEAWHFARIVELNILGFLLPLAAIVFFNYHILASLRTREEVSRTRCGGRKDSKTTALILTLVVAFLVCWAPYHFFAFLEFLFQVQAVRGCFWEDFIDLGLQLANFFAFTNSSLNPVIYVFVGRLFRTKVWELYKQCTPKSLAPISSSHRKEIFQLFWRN
Test: Calcium flux Assay (FLIPR) with recombinant CHO-K1 cells expressing human Bradykinin B1 receptor, in presence (hB1 IC50) or absence (hB1 free IC50) of 0.1% BSA
Type: cell-based
Experimental: The potency to inhibit the Bradykinin B1 receptor was determined for the compounds of this invention in a cell-based fluorescent calcium-mobilisation assay. The assay measures the ability of test compounds to inhibit Bradykinin B1 receptor agonist-induced increase of intracellular free Ca^2+ in the cell line expressing Bradykinin B1 receptor. […] The change of the intracellular Ca^2+ concentration is monitored with a fluorescent plate reader FLIPR TETRA® (Molecular Devices).
Calcium flux Assays (FLIPR) with cells expressing human Bradykinin B1 receptor (hB1)
CHO-K1 cell line expressing human Bradykinin B1 receptor was purchased from Euroscreen (Gosselies, Belgium, with reference name hB1-D1). The cells were grown in Nutrient Mixture Ham's F12 (Sigma) containing 10% Foetal bovine serum (Sigma) and 400 μg/mL G418 (Sigma), 5 μg/mL puromycim (Sigma). […]
Cells were seeded in a volume of 50 μL in medium without antibiotics and incubated overnight in a humidified atmosphere with 5% CO2 at 37° C. […] The calcium indicator loaded cells were incubated at 37° C. for 2 hrs. Extracellular dye was then removed and each well was filled with 45 μL of assay buffer. Cell plates were kept in dark until used. Compound examples were assayed at 8 concentrations in triplicate. Serial 10-fold dilutions in 100% DMSO were made at a 100-times higher concentration than the final concentration, and then diluted 1:10 in assay buffer. 5 μL of each diluted compound was added to the well of cell plates (yielding final concentration with 1% DMSO), and incubated for 30 min at 28° C. before the addition of Bradykinin B1 receptor agonist on the FLIPR instrument.
A peptide antagonist Lys-(Des-Arg-Leu)-Bradykinin (Bachem, Brackley) at 20 µM was used to determine the full inhibition as control.
Peak fluorescence was used to determine the response to agonist obtained at each concentration of compound examples by the following equation:
% Response=100*(RFU(compound)−RFU(control))/(RFU(DMSO)−RFU(control)) • RFU means relative fluorescence units. • Control means full inhibition by the peptide antagonist Lys-(Des-Arg-Leu)-Bradykinin at 20 µM.
The response values were plotted against the logarithm of the compound concentrations. The compound examples were tested in triplicates per plate and mean values were plotted in Excel XLfit to determine IC50 values, percentage of maximal inhibition and the Hill slopes.

[1] = in absence of 0.1% BSA, read-out: hB1 free IC50
[2] = in presence of 0.1% BSA, read-out: hB1 IC50

`COc1ccc(-c2ccc(NC(=O)C3(c4ccc(F)c(F)c4)CC3)cc2-c2nnn[nH]2)cc1OC` [Example 25, 1-(3,4-difluorophenyl)-N-[3′,4′-dimethoxy-2-(1H-tetrazol-5-yl)biphenyl-4-yl]cyclopropane-carboxamide] was tested, and the IC50 [1] was 25.9 nM and the IC50 [2] was 57.4 nM.
`COc1ccc(-c2ccc(NC(=O)C3(c4cccc(F)c4F)CC3)cc2-c2nnn[nH]2)cc1OC` [Example 26, 1-(2,3-difluorophenyl)-N-[3′,4′-dimethoxy-2-(1H-tetrazol-5-yl)biphenyl-4-yl]cyclopropane carboxamide] gave an IC50 [2] of 91.7 nM.
Work on `COc1ccc(-c2ccc(NC(=O)C3(c4cc(C(F)(F)F)ccc4F)CC3)cc2-c2nnn[nH]2)cc1OC` [Example 27, N-[3′,4′-dimethoxy-2-(1H-tetrazol-5-yl)biphenyl-4-yl]-1-[2-fluoro-5-(trifluoromethyl)phenyl] cyclopropane-carboxamide] yielded an IC50 [2] of 51.5 nM.
With `COc1ccc(-c2ccc(NC(=O)C3(c4ccc(F)cc4Cl)CC3)cc2-c2nnn[nH]2)cc1OC` [Example 28, 1-(2-chloro-4-fluorophenyl)-N-[3′,4′-dimethoxy-2-(1H-tetrazol-5-yl)biphenyl-4-yl]cyclopropane carboxamide] the IC50 [2] was 138 nM.
Compound `COc1ccc(-c2ccc(NC(=O)C3(c4c(F)cccc4F)CC3)cc2-c2nnn[nH]2)cc1OC` [Example 29, 1-(2,6-difluorophenyl)-N-[3′,4′-dimethoxy-2-(1H-tetrazol-5-yl)biphenyl-4-yl]cyclopropane carboxamide] has an IC50 [2] of 167 nM.
With `COc1ccc(-c2ccc(NC(=O)C3(c4cc(F)ccc4Cl)CC3)cc2-c2nnn[nH]2)cc1OC` [Example 30, 1-(2-chloro-5-fluorophenyl)-N-[3′,4′-dimethoxy-2-(1H-tetrazol-5-yl)biphenyl-4-yl]cyclopropane carboxamide] the IC50 [2] was 201 nM.
In the case of `COc1ccc(F)c(C2(C(=O)Nc3ccc(-c4ccc(OC)c(OC)c4)c(-c4nnn[nH]4)c3)CC2)c1` [Example 31, N-[3′,4′-dimethoxy-2-(1H-tetrazol-5-yl)biphenyl-4-yl]-1-(2-fluoro-5-methoxyphenyl) cyclopropane-carboxamide], the IC50 [2] is reported as 212 nM.
For `COc1cc(F)cc(C2(C(=O)Nc3ccc(-c4ccc(OC)c(OC)c4)c(-c4nnn[nH]4)c3)CC2)c1` [Example 32], the IC50 [2] was 41.6 nM.
Compound `COc1cc(C2(C(=O)Nc3ccc(-c4ccc(OC)c(OC)c4)c(-c4nnn[nH]4)c3)CC2)ccc1F` [Example 33, N-[3′,4′-dimethoxy-2-(1H-tetrazol-5-yl)biphenyl-4-yl]-1-(4-fluoro-3-methoxyphenyl) cyclopropane-carboxamide] has an IC50 [1] of 284 nM and an IC50 [2] of 238 nM.
`COc1ccc(-c2ccc(NC(=O)C3(C(F)(F)F)CC3)cc2-c2nnn[nH]2)cc1OC` [Example 34, N-[3′,4′-dimethoxy-2-(1H-tetrazol-5-yl)biphenyl-4-yl]-1-(trifluoromethyl) cyclopropane-carboxamide] showed an IC50 [2] of 603 nM.
With `COc1ccc(-c2ccc(NC(=O)C3(c4ccccc4)CC3)cc2-c2nnn[nH]2)cc1OC` [Example 35, N-[3′,4′-dimethoxy-2-(1H-tetrazol-5-yl)biphenyl-4-yl]-1-phenylcyclo-propane-carboxamide] the IC50 [2] was 213 nM.
`COc1ccc(-c2ccc(NC(=O)C3(c4ccccc4C)CC3)cc2-c2nnn[nH]2)cc1OC` [Example 37, N-[3′,4′-dimethoxy-2-(1H-tetrazol-5-yl)biphenyl-4-yl]-1-(2-methylphenyl) cyclopropane-carboxamide] was tested, and the IC50 [2] was 1830 nM.
Work on `COc1ccc(-c2ccc(NC(=O)C3(c4cccc(C(F)(F)F)c4)CC3)cc2-c2nnn[nH]2)cc1OC` [Example 38, N-[3′,4′-dimethoxy-2-(1H-tetrazol-5-yl)biphenyl-4-yl]-1-[3-(trifluoromethyl)phenyl] cyclopropane-carboxamide] yielded an IC50 [1] of 13.7 nM and an IC50 [2] of 38.8 nM.
`COc1ccc(-c2ccc(NC(=O)C3(c4cccc(C)c4)CC3)cc2-c2nnn[nH]2)cc1OC` [Example 39, N-[3′,4′-dimethoxy-2-(1H-tetrazol-5-yl)biphenyl-4-yl]-1-(3-methylphenyl) cyclopropane-carboxamide] gave an IC50 [2] of 80.3 nM.
Work on `CCc1cccc(C2(C(=O)Nc3ccc(-c4ccc(OC)c(OC)c4)c(-c4nnn[nH]4)c3)CC2)c1` [Example 40, N-[3′,4′-dimethoxy-2-(1H-tetrazol-5-yl)biphenyl-4-yl]-1-(3-ethylphenyl) cyclopropane-carboxamide] yielded an IC50 [2] of 31.4 nM.
`CCCc1cccc(C2(C(=O)Nc3ccc(-c4ccc(OC)c(OC)c4)c(-c4nnn[nH]4)c3)CC2)c1` [Example 41, N-[3′,4′-dimethoxy-2-(1H-tetrazol-5-yl)biphenyl-4-yl]-1-(3-propylpheny) cyclopropane-carboxamide] showed an IC50 [2] of 92 nM.
`COc1ccc(-c2ccc(NC(=O)C3(c4cccc(C(C)(C)C)c4)CC3)cc2-c2nnn[nH]2)cc1OC` [Example 42, 1-(3-tert-butylphenyl)-N-[3′,4′-dimethoxy-2-(1H-tetrazol-5-yl)biphenyl-4-yl]cyclopropane carboxamide] was tested, and the IC50 [2] was 746 nM.
For `COc1ccc(-c2ccc(NC(=O)C3(c4ccc(Cl)cc4)CC3)cc2-c2nnn[nH]2)cc1OC` [Example 43, 1-(4-chlorophenyl)-N-[3′,4′-dimethoxy-2-(1H-tetrazol-5-yl)biphenyl-4-yl]cyclopropane carboxamide], the IC50 [2] was 14 nM.
Compound `COc1ccc(-c2ccc(NC(=O)C3(c4ccc(C)cc4)CC3)cc2-c2nnn[nH]2)cc1OC` [Example 45, N-[3′,4′-dimethoxy-2-(1H-tetrazol-5-yl)biphenyl-4-yl]-1-(4-methylphenyl) cyclopropane-carboxamide] has an IC50 [2] of 49.8 nM.
`COc1ccc(-c2ccc(NC(=O)C3(c4ccc(C(C)(C)C)cc4)CC3)cc2-c2nnn[nH]2)cc1OC` [Example 46, 1-(4-tert-butylphenyl)-N-[3′,4′-dimethoxy-2-(1H-tetrazol-5-yl)biphenyl-4-yl]cyclopropane carboxamide] showed an IC50 [2] of 141 nM.
With `COc1ccc(C2(C(=O)Nc3ccc(-c4ccc(OC)c(OC)c4)c(-c4nnn[nH]4)c3)CC2)cc1` [Example 47, N-[3′,4′-dimethoxy-2-(1H-tetrazol-5-yl)biphenyl-4-yl]-1-(4-methoxyphenyl) cyclopropane-carboxamide] the IC50 [2] was 180 nM.
In the case of `COc1ccc(-c2ccc(NC(=O)C3(c4cccc(F)c4Cl)CC3)cc2-c2nnn[nH]2)cc1OC` [Example 49, 1-(2-chloro-3-fluorophenyl)-N-[3′,4′-dimethoxy-2-(1H-tetrazol-5-yl)biphenyl-4-yl]cyclopropane carboxamide], the IC50 [2] is reported as 213 nM.
`COc1ccc(-c2ccc(NC(=O)C3(c4cccc(Cl)n4)CC3)cc2-c2nnn[nH]2)cc1OC` [Example 50, 1-(6-chloropyridin-2-yl)-N-[3′,4′-dimethoxy-2-(1H-tetrazol-5-yl)biphenyl-4-yl]cyclopropane carboxamide] showed an IC50 [2] of 310 nM.
`COc1ccc(-c2ccc(NC(=O)C3(c4ccc(Cl)nc4)CC3)cc2-c2nnn[nH]2)cc1OC` [Example 51, 1-(6-Chloropyridin-3-yl)-N-[3′,4′-dimethoxy-2-(1H-tetrazol-5-yl)biphenyl-4-yl]cyclopropane carboxamide] showed an IC50 [2] of 342 nM.
`COc1ccc(-c2ccc(NC(=O)C3(Cc4ccccc4)CC3)cc2-c2nnn[nH]2)cc1OC` [Example 53, 1-benzyl-N-[3′,4′-dimethoxy-2-(1H-tetrazol-5-yl)biphenyl-4-yl]cyclopropane carboxamide] gave an IC50 [2] of 514 nM.
With `COc1ccc(-c2ccc(NC(=O)C3(CC4CCCCC4)CC3)cc2-c2nnn[nH]2)cc1OC` [Example 54, 1-(cyclohexyl-methyl)-N-[3′,4′-dimethoxy-2-(1H-tetrazol-5-yl)biphenyl-4-yl]cyclopropane carboxamide] the IC50 [2] was 544 nM.
For `COc1ccc(-c2ccc(NC(=O)C3(CC(C)C)CC3)cc2-c2nnn[nH]2)cc1OC` [Example 55, N-[3′,4′-dimethoxy-2-(1H-tetrazol-5-yl)biphenyl-4-yl]-1-isobutyl-cyclopropane-carboxamide], the IC50 [2] was 2060 nM.
`CCc1ccc(C2(C(=O)Nc3ccc(-c4ccc(OC)c(OC)c4)c(-c4nnn[nH]4)c3)CC2)cc1` [Example 57, N-[3′,4′-dimethoxy-2-(1H-tetrazol-5-yl)biphenyl-4-yl]-1-(4-ethylphenyl) cyclopropane-carboxamide] showed an IC50 [2] of 36.6 nM.
